According to paper PMC11876601 (Molecular Systems Biology, 2025):
Where two headings read alike, the source gives them in different places.

How the values were obtained:
[1] = molecular target: all target kinases identified with the Kinobeads technology; experiment: Kinobeads competition pulldown in AsPC-1 lysate, all kinases; type: binding, human; conditions: all targets other than ATR and ACVR2; read-out: KDapp of all other targets
Method: This was followed by incubation with Kinobeads ε (17.5 µl of settled beads) for 30 min at 4 °C to enrich kinases. […] Enriched proteins were reduced with 50 mM DTT in 8 M urea, 40 mM Tris-HCl, pH 7.4 for 30 min at room temperature, and alkylated with 55 mM chloroacetamide. After reducing the urea concentration to 1–2 M, proteins were digested with trypsin at 37 °C for 16 h. Subsequently, eluted peptides were desalted using SepPak tC18 µElution plates (Waters), freeze-dried by vacuum centrifugation, and stored at −20 °C.
For LC-MS/MS, dried peptides were reconstituted in 0.1% formic acid and analyzed on a Dionex Ultimate3000 nano HPLC (Thermo Scientific) coupled to an Orbitrap Fusion Tribrid mass spectrometer (Thermo Scientific), which was run in data-dependent mode. […]
Oxidized methionine and N-terminal acetylation were set as variable modification, and cysteine carbamidomethylation was set as fixed modification. Label-free quantification (LFQ) and match-between-runs were enabled. […]
Proteins were filtered by potential contaminants, reversed hits and proteins identified only by site. Residual binding of proteins was calculated from LFQ intensities as the ratio between drug doses and vehicle. […] Only kinases quantified with at least 4 unique peptides in the vehicle experiment were considered. […]

PRKAG1 = tested on: PRKAG1; set-up: method as in Klaeger et al. (2017); conditions: lysate 4 cell line mix (Colo205, K-562, MV-4-11, and SK-N-BE(2)), Kinobeads y, ref Klaeger et al. (2017); cited from earlier work
MAP4K3 [2] = tested on: MAP4K3; set-up: method as in Klaeger et al. (2017); conditions: lysate 4 cell line mix (Colo205, K-562, MV-4-11, and SK-N-BE(2)), Kinobeads y, ref Klaeger et al. (2017); cited from earlier work
Dan-G = experiment: cells; set-up: ATPlite luminescence viability of PDAC cell lines, 11-dose single-agent curves, 4-parameter fit; conditions: 72 h, read-out: EC50 [nM]
How it was run: (§1)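 cells (1000 to 5000 per well) seeded 24 h before drug addition in a combination screen at 0.2% final DMSO. Controls were drug-free wells (negative) and 5 µM staurosporine (positive).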

FAMPAC = experiment: cells; set-up: ATPlite luminescence viability of PDAC cell lines, 11-dose single-agent curves, 4-parameter fit; conditions: 72 h, read-out: EC50 [nM]
How it was run: as §1

Suit2-07 = experiment: cells; set-up: ATPlite luminescence viability of PDAC cell lines, 11-dose single-agent curves, 4-parameter fit; conditions: 72 h, read-out: EC50 [nM]
How it was run: as §1

PANC-1 = experiment: cells; set-up: Viability of PDAC cell lines, ATPlite luminescence, 11-dose single-agent curve fit; conditions: Homo sapiens, PANC-1, 72 h, read-out: EC50 [nM]
How it was run: (§2)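 cells (1000 to 5000 per well) seeded 24 h before drug addition in a screen at 0.2% final DMSO. Controls were drug-free wells (negative) and 5 µM staurosporine (positive).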

Colo-357 = experiment: cells; set-up: Viability of PDAC cell lines, ATPlite luminescence, 11-dose single-agent curve fit; conditions: Homo sapiens, COLO357, 72 h, read-out: EC50 [nM]
How it was run: as §2

HuP-T4 = experiment: cells; set-up: Viability of PDAC cell lines, ATPlite luminescence, 11-dose single-agent curve fit; conditions: Homo sapiens, HuP-T4, 72 h, read-out: EC50 [nM]
How it was run: as §2

PRKCD = molecular target: PRKCD; set-up: method as in Reinecke et al. (2023); conditions: 5 cell line mix lysate, Kinobeads ε, ref Reinecke et al. (2023), cited from earlier work
ABL2 = tested on: ABL2; set-up: method as in Reinecke et al. (2023); conditions: ABL2, 5 cell line mix lysate, Kinobeads ε, ref Reinecke et al. (2023), cited from earlier work
TBK1 = conditions: TBK1, 5 cell line mix lysate, Kinobeads ε, ref Reinecke et al. (2023), cited from earlier work
MAPK9 = tested on: MAPK9; set-up: method as in Reinecke et al. (2023); conditions: MAPK9, 5 cell line mix lysate, Kinobeads ε, ref Reinecke et al. (2023), cited from earlier work
PRKAB2 = tested on: PRKAB2; set-up: method as in Reinecke et al. (2023); conditions: PRKAB2, 5 cell line mix lysate, Kinobeads ε, ref Reinecke et al. (2023), cited from earlier work
MAP4K3 [3] = tested on: MAP4K3; set-up: method as in Reinecke et al. (2023); conditions: MAP4K3, 5 cell line mix lysate, Kinobeads ε, ref Reinecke et al. (2023), cited from earlier work
TTK = molecular target: TTK; set-up: method as in Reinecke et al. (2023); conditions: 5 cell line mix lysate, Kinobeads ε, ref Reinecke et al. (2023), cited from earlier work

With `CNCc1ccc(-c2cc(-c3nc(-c4ccc(S(=O)(=O)C(C)C)cc4)cnc3N)on2)cc1` [Berzosertib] the Kd [1] was > 10 nM.

In the case of `C[C@]12O[C@H](C[C@]1(O)CO)n1c3ccccc3c3c4c(c5c6ccccc6n2c5c31)CNC4=O` [Lestaurtinib], the EC50 (PRKAG1) is listed as 1400 nM and the EC50 (MAP4K3 [2]) is listed as […].

With `CCN1CCN(Cc2ccc(Nc3ncc(F)c(-c4cc(F)c5nc(C)n(C(C)C)c5c4)n3)nc2)CC1` [Abemaciclib] the EC50 (Dan-G) was > 10000 nM, the EC50 (FAMPAC) was > 10000 nM and the EC50 (Suit2-07) was 250 nM. The EC50 (PANC-1) was 5540 nM, the EC50 (Colo-357) was 160 nM and the EC50 (HuP-T4) was 7.93 nM.

In the case of `COc1cc(N2CCC(N3CCN(C)CC3)CC2)ccc1Nc1ncc(Cl)c(Nc2ccccc2P(C)(C)=O)n1` [Brigatinib], the Kd (PRKCD; read-out: KDapp) is given as 24500 nM, the EC50 (PRKCD) is given as 25800 nM and the pKDapp (PRKCD) is given as 4.61. The EC50 (ABL2) was 3240 nM, the pKDapp (ABL2) was 5.97 and the Kd (ABL2; read-out: KDapp) was 1070 nM. The EC50 (TBK1) was 1020 nM, the pKDapp (TBK1) was 6.18 and the Kd (TBK1; read-out: KDapp) was 655 nM. The EC50 (MAPK9) was 2110 nM, the pKDapp (MAPK9) was 5.83 and the Kd (MAPK9; read-out: KDapp) was 1480 nM. The EC50 (PRKAB2) was 546 nM, the pKDapp (PRKAB2) was 6.48 and the Kd (PRKAB2; read-out: KDapp) was 328 nM. For the same compound, the EC50 (MAP4K3 [3]) was 1160 nM, the pKDapp (MAP4K3 [3]) was 6.12 and the Kd (MAP4K3 [3]; read-out: KDapp) was 759 nM. The Kd (TTK; read-out: KDapp) was 629 nM, the EC50 (TTK) was 629 nM and the pKDapp (TTK) was 6.20.
